According to patent publication US5559096A, “Pharmaceutical compositions against gastric disorders” (Applied Microbiology, Inc., priority 1991, dated 1996):
Positions of bridges follow the written chain, without caps; N, C: chain ends. Non-standard residues stand in square brackets, D forms with d. Primed or numbered codes have the meaning given here. No end group written: not given here. Dhb′ = not defined here; Abu = CC[C@H](N)C(=O)O; Dha = C=C(N)C(=O)O

How the values were obtained:
Helicobacter pylori [1] = experiment: Kill time assay: effect of citrate on antimicrobial activity (microbe survival); format: cell-based; conditions: Citrate 10 mM; for Mean Counts CFU/ml 1 min: 1 min after inoculation; for Mean Counts CFU/ml 5 min: 5 min after inoculation; for Mean Counts CFU/ml 30 min: 30 min after inoculation
Procedure: A kill time assay was carried out to determine the effect of citrate on antimicrobial activity. Microbe survival was assessed after treatment with bacteriocin alone and bacteriocin plus citrate. The effect of citrate alone was also measured. Survival was measured at 1,5 and 30 minutes after inoculation. Activity is expressed as the mean number of counts of colony forming units (CFU) per ml.

H.pylori NCTC 11637 = experiment: MIC by spiral plater, H.pylori NCTC 11637; format: cell-based, Helicobacter pylori; conditions: H.pylori NCTC 11637, human strain
Procedure: (§1) The Minimum Inhibitory Concentration (MIC) of bacteriocin antimicrobial agents against a human strains of H.pylori (H.pylori NCTC 11916 and NCTC 11637) were assessed using a spiral plater and automatic agar plate pourer, according to the method of Wallace A. S. and Corkill J. E. (J. Microbial. Methods, 10, 303-310, 1989). MIC values were calculated according to the equation for the Archimedes spiral.

Helicobacter pylori [2] = experiment: Kill time at 4 times the average MIC; format: cell-based; conditions: time taken to reduce microbe levels to <200 viable organisms; drug concentration 4 times the average MIC
Procedure: Kill time was calculated as the time taken to reduce microbe levels to <200 viable organisms using a drug concentration equal to 4 times the average MIC value for the test compound.

H.pylori NCTC 11916 = experiment: MIC by spiral plater, H.pylori NCTC 11916; format: cell-based, Helicobacter pylori; conditions: H.pylori NCTC 11916, human strain
Procedure: as §1

[3] = Initial Inoculum 8.92 × 10^4, Ambicin N 300 ppm

Row | Molecule | Mean Counts CFU/ml 1 min (Helicobacter pylori [1]; Initial Inoculum 2.39 × 10^5) | Mean Counts CFU/ml 1 min (Helicobacter pylori [1]; [3]) | Mean Counts CFU/ml 5 min (Helicobacter pylori [1]; Initial Inoculum 2.39 × 10^5) | Mean Counts CFU/ml 5 min (Helicobacter pylori [1]; [3]) | Mean Counts CFU/ml 30 min (Helicobacter pylori [1]; Initial Inoculum 2.39 × 10^5) | Mean Counts CFU/ml 30 min (Helicobacter pylori [1]; [3]) | MIC Value NCTC 11637 (H.pylori NCTC 11637) [µg/mL] | Kill Time (Helicobacter pylori [2]) | MIC Value NCTC 11916 (H.pylori NCTC 11916) [µg/mL]
1 | O=C(O)CC(O)(CC(=O)O)C(=O)O [Citrate] | 1.59 × 10^4 CFU/ml | 7.98 × 10^4 CFU/ml | 1.42 × 10^4 CFU/ml | 8.64 × 10^4 CFU/ml | 1.95 × 10^4 CFU/ml | 6.92 × 10^4 CFU/ml |  |  | 
2 | CC(C)C[C@@H]1NC(=O)[C@H](CCCN)NC(=O)[C@H](C(C)C)NC(=O)[C@H](Cc2ccc(O)cc2)N[C@@H](CCC(=O)O)C(=O)N[C@@H](CC(N)=O)C(=O)[C@@H](Cc2ccccc2)NC(=O)[C@H](Cc2ccccc2)NC(=O)[C@@H]2CCCN2C(=O)[C@@H](Cc2ccccc2)NC1=O [Tyrothricin] | 2.55 × 10^4 CFU/ml |  | 1.77 × 10^4 CFU/ml |  | 1.78 × 10^4 CFU/ml |  | 1.0 to 5.0 | < 1 | 1.0 to 4.0
3 | Ambicin N: purified form of nisin made available by Applied Microbiology Inc. under the trade name AMBICIN N (I[Dhb′]AI[Dha]LC[Abu]PGCK[Abu]GALMGCNMK[Abu]A[Abu]CHCSIHV[Dha]K; thioether 8-11, 13-19, 23-26, 25-28, 3-7; UniProt P13068 24-57, looked up) |  | 6.31 × 10^4 CFU/ml |  | 5.71 × 10^4 CFU/ml |  | 4.72 × 10^4 CFU/ml | 50 to 300 | > 30 | 50 to 300
4 | Gramicidin | 7.69 × 10^3 CFU/ml |  | 1.44 × 10^4 CFU/ml |  | 1.35 × 10^4 CFU/ml |  | 1.0 to 3.5 | > 30 | 0.5 to 3.0
